Data taken from patent US8778919B2, “Cyclic anilino—pyridinotriazines” (Janssen Pharmaceutica NV, priority 2005, dated 2014).

How the values were obtained:
[1] = molecular target: GSK-3α (Homo sapiens, UniProt P49840); assay: GSK-3 kinase assay (C1), GSK-3α; format: biochemical; details: 1 μM ATP, read-out: C1 Score α
Experimental: (§1) In vitro GSK-3 assays were performed at room temperature in a 100 μl reaction volume of 25 mM Tris (pH 7.4) containing 10 mM MgCl2.6H2O, 1 mM DTT, 0.1 mg/ml BSA, 5% glycerol, 5.7 ng/μl GSK-3β or 0.25 ng/μl GSK-3α, 5 μM biotinylated CREB peptide, 1 μM ATP, 0.85 μCi/ml ^33P-ATP and a suitable amount of a test compound. After one hour, the reaction was terminated by adding 70 μl of Stop mix (0.1 mM ATP, 5 mg/ml streptavidin coated PVT SPA beads, pH 11.0). The beads were allowed to settle overnight and the radioactivity attached to the beads was counted in a microtiter plate scintillation counter and compared with the results obtained in a control experiment (without the presence of a test compound) in order to determine the percentage of GSK-3 inhibition. The IC50 value, i.e. the concentration (M) of the test compound at which 50% of GSK-3 is inhibited, was calculated from the dose response curve obtained by performing the above-described GSK-3 assay in the presence of different amounts of the test compound. Score 1=pIC50 value<6, Score 2=pIC50 value from 6-7, Score 3=pIC50 value from 7-8, Score 4=pIC50 value>8.

[2] = molecular target: CDK2/cyclinA (h) (Homo sapiens, UniProt P24941); assay: Kinase profiling C3.3 CDK2/cyclinA human; format: biochemical; details: test concentration of 10^−6 M
Experimental: (§2) The in vitro inhibition of a panel of kinases was assessed using either the glass-fiber filter technology as described by Davies, S. P. et al., Biochem J. (2000), 351; p. 95-105. In the glass-fiber filter technology the activity of the kinase of interest is measured using an appropriate substrate that is incubated with the aforementioned kinase protein in the presence of (^33P) radiolabeled ATP. (^33P) Phosporylation of the substrate is subsequently measured as radioactivity bound on a glassfiber-filter.
(§3) All kinases are pre-diluted to a 10× working concentration prior to addition into the assay. The composition of the dilution buffer for each kinase is detailed below.
(§4) All substrates are dissolved and diluted to working stocks in de-ionised water, apart from histone H1 that is stored in 10× working stock in 20 mM MOPS pH 7.4.
(§5) In a final reaction volume of 25 μl, CDK2/cyclinA (h) (5-10 mU) is incubated with 8 mM MOPS pH 7.0, 0.2 mM EDTA, 0.1 mg/ml histone H1, 10 mM MgAcetate and [γ-^33P-ATP] (specific activity approx. 500 cpm/pmol, concentration as required). The reaction is initiated by the addition of the MgATP mix. After incubation for 40 minutes at room temperature, the reaction is stopped by the addition of 5 μl of a 3% phosphoric acid solution. 10 μl of the reaction is then spotted onto a P30 filtermat and washed three times for 5 minutes in 75 mM phosphoric acid and once in methanol prior to drying and scintillation counting.

[3] = molecular target: CDK1/cyclinB (h) (Homo sapiens, UniProt P06493); assay: Kinase profiling C3.2 CDK1/cyclinB human; format: biochemical; details: test concentration of 10^−6 M
CDK1/cyclinB (h), sequence (P06493 whole entry): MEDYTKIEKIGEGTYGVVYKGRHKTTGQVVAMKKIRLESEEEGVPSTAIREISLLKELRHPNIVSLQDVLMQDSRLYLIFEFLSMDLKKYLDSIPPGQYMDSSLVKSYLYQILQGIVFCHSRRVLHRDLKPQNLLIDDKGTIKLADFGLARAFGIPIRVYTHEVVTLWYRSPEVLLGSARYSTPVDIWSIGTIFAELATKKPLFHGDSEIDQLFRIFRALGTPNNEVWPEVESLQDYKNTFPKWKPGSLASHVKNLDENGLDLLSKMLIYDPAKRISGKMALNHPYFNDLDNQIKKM
CDK1/cyclinB (h), sequence (P14635 whole entry partner): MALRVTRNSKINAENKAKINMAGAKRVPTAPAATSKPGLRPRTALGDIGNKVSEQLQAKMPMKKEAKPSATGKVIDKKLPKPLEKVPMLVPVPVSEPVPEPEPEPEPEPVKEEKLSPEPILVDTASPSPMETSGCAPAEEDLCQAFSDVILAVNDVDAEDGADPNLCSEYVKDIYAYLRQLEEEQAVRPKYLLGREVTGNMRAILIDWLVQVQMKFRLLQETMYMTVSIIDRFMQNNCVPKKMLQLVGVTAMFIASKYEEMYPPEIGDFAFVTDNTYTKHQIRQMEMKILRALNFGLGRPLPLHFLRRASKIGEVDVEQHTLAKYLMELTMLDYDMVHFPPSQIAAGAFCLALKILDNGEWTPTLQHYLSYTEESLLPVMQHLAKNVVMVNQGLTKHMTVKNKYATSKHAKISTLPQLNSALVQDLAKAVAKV
Experimental: as §2, §3, §4
as §5, with “CDK1/cyclinB” for “CDK2/cyclinA”

[4] = molecular target: CDK2/cyclinE (h) (Homo sapiens, UniProt P24941); assay: Kinase profiling C3.4 CDK2/cyclinE human; format: biochemical; details: test concentration of 10^−6 M
Experimental: as §2, §3, §4
as §5, with “CDK2/cyclinE” for “CDK2/cyclinA”

[5] = molecular target: CDK7/cyclinH/MAT1 (h) (Homo sapiens, UniProt P50613); assay: Kinase profiling C3.8 CDK7/cyclinH/MAT1 human; format: biochemical; details: CDK7/cyclinH/MAT1, test concentration of 10^−6 M
CDK7/cyclinH/MAT1 (h), sequence (P50613 whole entry): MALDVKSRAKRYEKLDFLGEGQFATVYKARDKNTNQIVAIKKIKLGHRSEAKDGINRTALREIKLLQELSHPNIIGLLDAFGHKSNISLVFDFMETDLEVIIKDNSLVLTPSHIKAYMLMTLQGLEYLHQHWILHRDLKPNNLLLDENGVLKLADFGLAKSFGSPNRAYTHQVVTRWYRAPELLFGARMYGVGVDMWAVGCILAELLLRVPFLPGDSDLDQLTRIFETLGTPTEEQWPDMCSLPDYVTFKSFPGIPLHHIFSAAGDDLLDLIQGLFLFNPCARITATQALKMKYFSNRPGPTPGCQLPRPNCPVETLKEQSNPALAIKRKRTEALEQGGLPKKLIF
CDK7/cyclinH/MAT1 (h), sequence (P51946 whole entry partner): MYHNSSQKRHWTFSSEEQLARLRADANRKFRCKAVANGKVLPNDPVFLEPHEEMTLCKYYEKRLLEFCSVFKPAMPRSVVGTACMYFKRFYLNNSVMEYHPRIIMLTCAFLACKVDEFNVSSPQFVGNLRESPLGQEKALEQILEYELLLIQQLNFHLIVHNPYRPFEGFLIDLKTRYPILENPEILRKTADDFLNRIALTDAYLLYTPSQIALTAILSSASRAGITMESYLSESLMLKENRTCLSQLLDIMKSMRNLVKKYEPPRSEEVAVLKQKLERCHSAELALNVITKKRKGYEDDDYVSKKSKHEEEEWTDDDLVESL
CDK7/cyclinH/MAT1 (h), sequence (P51948 whole entry partner): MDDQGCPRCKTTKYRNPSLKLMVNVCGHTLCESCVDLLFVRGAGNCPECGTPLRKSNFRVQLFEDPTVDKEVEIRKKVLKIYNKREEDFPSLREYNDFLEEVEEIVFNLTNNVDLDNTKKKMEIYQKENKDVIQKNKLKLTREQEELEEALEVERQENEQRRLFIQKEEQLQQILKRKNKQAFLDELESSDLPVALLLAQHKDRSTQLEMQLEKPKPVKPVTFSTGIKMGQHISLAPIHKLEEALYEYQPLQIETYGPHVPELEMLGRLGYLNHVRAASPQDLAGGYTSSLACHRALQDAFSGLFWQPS
Experimental: as §2, §3, §4
as §5, with “CDK7/cyclinH/MAT1” for “CDK2/cyclinA”, “500 μM peptide,” for “0.1 mg/ml histone H1,”

[6] = molecular target: CDK3/cyclinE (h) (Homo sapiens, UniProt Q00526); assay: Kinase profiling C3.5 CDK3/cyclinE human; format: biochemical; details: test concentration of 10^−6 M
Experimental: as §2, §3, §4
as §5, with “CDK3/cyclinE” for “CDK2/cyclinA”

[7] = molecular target: CDK6/cyclinD3 human (Homo sapiens, UniProt Q00534); assay: Kinase profiling C3.7 CDK6/cyclinD3 human; format: biochemical; details: CDK6/cyclinD3, test concentration of 10^−6 M
CDK6/cyclinD3 human, sequence (Q00534 whole entry): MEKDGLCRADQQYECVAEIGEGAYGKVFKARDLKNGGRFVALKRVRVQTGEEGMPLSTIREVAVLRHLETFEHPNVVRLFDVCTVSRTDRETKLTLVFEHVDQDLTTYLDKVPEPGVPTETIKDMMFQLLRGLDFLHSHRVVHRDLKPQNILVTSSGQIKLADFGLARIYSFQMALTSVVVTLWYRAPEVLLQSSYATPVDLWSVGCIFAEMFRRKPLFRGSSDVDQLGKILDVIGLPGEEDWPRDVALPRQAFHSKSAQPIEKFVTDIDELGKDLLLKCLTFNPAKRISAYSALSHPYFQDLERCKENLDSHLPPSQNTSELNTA
CDK6/cyclinD3 human, sequence (P30281 whole entry partner): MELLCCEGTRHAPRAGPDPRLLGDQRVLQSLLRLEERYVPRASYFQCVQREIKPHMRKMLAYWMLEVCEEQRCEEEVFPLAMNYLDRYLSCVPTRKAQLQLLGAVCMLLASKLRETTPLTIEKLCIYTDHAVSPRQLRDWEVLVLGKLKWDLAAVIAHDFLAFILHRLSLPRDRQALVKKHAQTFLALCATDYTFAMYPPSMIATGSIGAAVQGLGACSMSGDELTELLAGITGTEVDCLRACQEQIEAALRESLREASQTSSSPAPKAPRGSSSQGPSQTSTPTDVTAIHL
Experimental: as §2, §3, §4
as §5, with “CDK6/cyclinD3 human” for “CDK2/cyclinA (h)”

[8] = molecular target: CDK5/p35 human (Homo sapiens, UniProt Q00535); assay: Kinase profiling C3.6 CDK5/p35 human; format: biochemical; details: CDK5/p35, test concentration of 10^−6 M
CDK5/p35 human, sequence (Q00535 whole entry): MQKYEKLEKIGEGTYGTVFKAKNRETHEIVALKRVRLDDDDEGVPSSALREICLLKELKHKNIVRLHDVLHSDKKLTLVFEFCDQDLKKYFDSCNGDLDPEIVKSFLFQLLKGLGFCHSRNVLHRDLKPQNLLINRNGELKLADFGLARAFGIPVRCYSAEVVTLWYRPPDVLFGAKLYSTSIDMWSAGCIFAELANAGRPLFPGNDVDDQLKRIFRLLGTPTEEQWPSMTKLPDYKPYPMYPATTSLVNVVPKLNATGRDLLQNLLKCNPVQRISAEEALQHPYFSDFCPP
CDK5/p35 human, sequence (Q15078 whole entry partner): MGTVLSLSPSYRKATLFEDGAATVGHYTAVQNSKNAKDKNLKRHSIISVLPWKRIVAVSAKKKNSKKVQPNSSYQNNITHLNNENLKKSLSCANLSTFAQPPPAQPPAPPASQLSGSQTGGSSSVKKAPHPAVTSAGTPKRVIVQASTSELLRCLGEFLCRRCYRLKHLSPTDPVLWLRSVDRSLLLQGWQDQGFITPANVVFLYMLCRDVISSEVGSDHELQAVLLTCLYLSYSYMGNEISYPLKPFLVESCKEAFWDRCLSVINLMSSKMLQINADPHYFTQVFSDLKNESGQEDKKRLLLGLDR
Experimental: as §2, §3, §4
as §5, with “CDK5/p35 human” for “CDK2/cyclinA (h)”

[9] = molecular target: GSK-3β (Homo sapiens, UniProt P49841); assay: GSK-3 kinase assay (C1), GSK-3β; format: biochemical; details: 1 μM ATP, read-out: C1 Score β
GSK-3β, sequence (P49841 whole entry, species assumed): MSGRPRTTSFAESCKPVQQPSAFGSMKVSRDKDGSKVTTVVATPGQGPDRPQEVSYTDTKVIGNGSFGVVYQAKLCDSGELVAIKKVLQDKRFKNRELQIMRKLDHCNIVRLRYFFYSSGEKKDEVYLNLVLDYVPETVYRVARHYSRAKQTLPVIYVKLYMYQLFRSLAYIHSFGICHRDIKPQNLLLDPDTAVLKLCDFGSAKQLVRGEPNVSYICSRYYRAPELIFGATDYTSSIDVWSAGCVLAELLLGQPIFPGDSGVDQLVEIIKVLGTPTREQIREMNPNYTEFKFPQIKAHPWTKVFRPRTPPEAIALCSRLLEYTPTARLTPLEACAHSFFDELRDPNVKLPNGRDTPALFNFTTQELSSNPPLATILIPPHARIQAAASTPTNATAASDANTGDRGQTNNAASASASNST
Experimental: as §1

[10] = tested on: Chang cells; assay: GSK-3 cellular assay (C2): 14C-D-glucose incorporation into glycogen; format: cell-based; details: increase in D-glucose incorporation into glycogen, test concentration of 10^−6 M
Experimental: Test compounds were tested for their ability to increase the incorporation of ^14C-D-glucose into glycogen in living cells. To do this, Chang cells (360,000 cells/well) were cultured in 0.5 ml of MEM Rega 3 medium supplemented with 10% fetal calf serum, 1% L-glutamine and 2% sodium carbonate. After 3 days, cells were washed with 0.5 ml of phosphate-buffered saline and overlayed with 1 ml of serum- and glucose-free DMEM medium. Then, 2 μl of compound in DMSO and 50 μl substrate (3 mM glucose and 0.5 μCi ^14C-D-glucose were added and the cultures were incubated for 90 min. Cells were then extracted with 0.5 ml of 20% KOH for 60 min at 37° C. and the cell lysates were transferred to 10 ml tubes containing 300 μl of 1 mg/ml glycogen as […]. Following the addition of 2 ml ethanol, total glycogen was precipitated overnight at −20° C. and the precipitates were recovered by centrifugation. Precipitates were then resuspended in 1 ml of water and transferred to scintillation counter vials. and the amount of ^14C-D-glucose incorporation into glycogen was measured by scintillation counting. Scores for the compounds according to the invention, were obtained at a test concentration of 10^−6 M. Score 1=10-30% increase, Score 2=30-60% increase, Score 3=60-80% increase and Score 4=>80% increase in D-glucose incorporation.

GSK-3α, sequence (P49840 whole entry, species assumed): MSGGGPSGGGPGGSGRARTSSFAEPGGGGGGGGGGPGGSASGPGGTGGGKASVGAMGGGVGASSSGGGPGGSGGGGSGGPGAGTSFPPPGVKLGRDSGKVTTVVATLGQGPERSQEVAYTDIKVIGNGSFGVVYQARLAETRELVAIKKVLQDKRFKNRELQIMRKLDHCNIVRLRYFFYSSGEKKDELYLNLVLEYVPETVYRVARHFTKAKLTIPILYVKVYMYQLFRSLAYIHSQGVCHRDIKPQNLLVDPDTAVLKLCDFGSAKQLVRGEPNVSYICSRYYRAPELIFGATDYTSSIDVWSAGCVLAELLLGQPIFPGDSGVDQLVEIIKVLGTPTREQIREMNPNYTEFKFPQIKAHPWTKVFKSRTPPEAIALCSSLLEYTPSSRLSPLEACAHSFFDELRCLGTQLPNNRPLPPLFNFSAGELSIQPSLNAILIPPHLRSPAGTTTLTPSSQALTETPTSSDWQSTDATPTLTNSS

Structure (SMILES)	IC50 [1]	C3.3 score [2]	C3.2 score [3]	C3.4 score [4]	C3.8 score [5]	C3.5 score [6]	C3.7 score [7]	C3.6 score [8]	IC50 [9]	C2 Score [10]
O=C1NCCc2cccc(c2)Nc2ncnc(n2)-c2ccnc(c2)CCCN2C[C@H](O)C[C@@H]12 [Compound 25]	10 to 100 nM	4 (Score 4 = >80% inhibition)	3 (Score 3 = 60-80% inhibition)	4 (Score 4 = >80% inhibition)	2 (Score 2 = 30-60% inhibition)	3 (Score 3 = 60-80% inhibition)	2 (Score 2 = 30-60% inhibition)	2 (Score 2 = 30-60% inhibition)	10 to 100 nM	
O=C1NCCc2cccc(c2)Nc2ncnc(n2)-c2ccnc(c2)CCCN2CCCC1C2 (stereo not shown) [Compound 26]	10 to 100 nM	3 (Score 3 = 60-80% inhibition)	1 (Score 1 = 10-30% inhibition)	4 (Score 4 = >80% inhibition)	2 (Score 2 = 30-60% inhibition)	3 (Score 3 = 60-80% inhibition)	1 (Score 1 = 10-30% inhibition)	2 (Score 2 = 30-60% inhibition)	10 to 100 nM	
O=C1CC2CCN(CCCc3cc(ccn3)-c3ncnc(n3)Nc3cccc(c3)CCN1)CC2 [Compound 27]	100 to 1000 nM	3 (Score 3 = 60-80% inhibition)	2 (Score 2 = 30-60% inhibition)	2 (Score 2 = 30-60% inhibition)	1 (Score 1 = 10-30% inhibition)	1 (Score 1 = 10-30% inhibition)	1 (Score 1 = 10-30% inhibition)	2 (Score 2 = 30-60% inhibition)	100 to 1000 nM	
CN1CC(=O)NCCCc2cc(ccn2)-c2ncnc(n2)Nc2cc(Cl)ccc2C1 [Compound 31]	> 1000 nM	2 (Score 2 = 30-60% inhibition)	3 (Score 3 = 60-80% inhibition)	3 (Score 3 = 60-80% inhibition)	1 (Score 1 = 10-30% inhibition)	4 (Score 4 = >80% inhibition)	1 (Score 1 = 10-30% inhibition)	4 (Score 4 = >80% inhibition)	> 1000 nM	
CN1CCC(=O)NCCCc2cc(ccn2)-c2ncnc(n2)Nc2cc(Cl)cc(c2)C1 [Compound 32]	10 to 100 nM	4 (Score 4 = >80% inhibition)	4 (Score 4 = >80% inhibition)	4 (Score 4 = >80% inhibition)	2 (Score 2 = 30-60% inhibition)	3 (Score 3 = 60-80% inhibition)	1 (Score 1 = 10-30% inhibition)	4 (Score 4 = >80% inhibition)	10 to 100 nM	
O=C1CCN2CCN(CC2)Cc2cc(Cl)cc(c2)Nc2ncnc(n2)-c2ccnc(c2)CCCN1 [Compound 37]	10 to 100 nM	4 (Score 4 = >80% inhibition)	4 (Score 4 = >80% inhibition)	4 (Score 4 = >80% inhibition)	3 (Score 3 = 60-80% inhibition)	4 (Score 4 = >80% inhibition)	2 (Score 2 = 30-60% inhibition)	4 (Score 4 = >80% inhibition)	10 to 100 nM	

Second part, led by results:

IC50 [1]	C3.3 score [2]	C3.2 score [3]	C3.4 score [4]	C3.8 score [5]	C3.5 score [6]	C3.7 score [7]	C3.6 score [8]	IC50 [9]	Structure (SMILES)	C2 Score [10]
< 10 nM	2 (Score 2 = 30-60% inhibition)								CC(C)N1CC(=O)NCCCc2cc(ccn2)-c2ncnc(n2)Nc2cccc(c2)C1 [Compound 65]	3 (Score 3=60-80% increase)
< 10 nM									CN1CC(=O)N(C)CCCc2cc(ccn2)-c2ncnc(n2)Nc2cccc(c2)C1 [Compound 67]	4 (Score 4=>80% increase in D-glucose incorporation)
< 10 nM									CN1CCCc2cc(ccc2F)-c2ncnc(n2)Nc2cccc(c2)CNC(=O)C1 [Compound 70]	4 (Score 4=>80% increase in D-glucose incorporation)
